Results taken from patent publication US11136313B2, “Compounds, compositions, and methods for modulating CFTR” (Proteostasis Therapeutics, Inc., priority 2015, dated 2021).

target: T1, ΔF508-CFTR (Homo sapiens, UniProt P13569, DEL508-508); experiment: hBE equivalent current (Ieq) assay: AUC of equivalent chloride current after forskolin/VX-770 in primary lung epithelial cells homozygous for ΔF508; format: cell-based; conditions: relative to CFTR amplifier (Compound A)+VX-809 (3 uM), compound at 10 uM and Compound A at 3 uM, 24 h treatment
T1 construct: Primary lung epithelial cells homozygous for the Cystic Fibrosis-causing ΔF508 mutation were differentiated for a minimum of 4 weeks; endogenous in cells; host or cells: primary lung epithelial cells (hBE) homozygous for ΔF508, differentiated at an air-liquid interface
T1 sequence (P13569 with tags, fused parts or gaps DEL508-508): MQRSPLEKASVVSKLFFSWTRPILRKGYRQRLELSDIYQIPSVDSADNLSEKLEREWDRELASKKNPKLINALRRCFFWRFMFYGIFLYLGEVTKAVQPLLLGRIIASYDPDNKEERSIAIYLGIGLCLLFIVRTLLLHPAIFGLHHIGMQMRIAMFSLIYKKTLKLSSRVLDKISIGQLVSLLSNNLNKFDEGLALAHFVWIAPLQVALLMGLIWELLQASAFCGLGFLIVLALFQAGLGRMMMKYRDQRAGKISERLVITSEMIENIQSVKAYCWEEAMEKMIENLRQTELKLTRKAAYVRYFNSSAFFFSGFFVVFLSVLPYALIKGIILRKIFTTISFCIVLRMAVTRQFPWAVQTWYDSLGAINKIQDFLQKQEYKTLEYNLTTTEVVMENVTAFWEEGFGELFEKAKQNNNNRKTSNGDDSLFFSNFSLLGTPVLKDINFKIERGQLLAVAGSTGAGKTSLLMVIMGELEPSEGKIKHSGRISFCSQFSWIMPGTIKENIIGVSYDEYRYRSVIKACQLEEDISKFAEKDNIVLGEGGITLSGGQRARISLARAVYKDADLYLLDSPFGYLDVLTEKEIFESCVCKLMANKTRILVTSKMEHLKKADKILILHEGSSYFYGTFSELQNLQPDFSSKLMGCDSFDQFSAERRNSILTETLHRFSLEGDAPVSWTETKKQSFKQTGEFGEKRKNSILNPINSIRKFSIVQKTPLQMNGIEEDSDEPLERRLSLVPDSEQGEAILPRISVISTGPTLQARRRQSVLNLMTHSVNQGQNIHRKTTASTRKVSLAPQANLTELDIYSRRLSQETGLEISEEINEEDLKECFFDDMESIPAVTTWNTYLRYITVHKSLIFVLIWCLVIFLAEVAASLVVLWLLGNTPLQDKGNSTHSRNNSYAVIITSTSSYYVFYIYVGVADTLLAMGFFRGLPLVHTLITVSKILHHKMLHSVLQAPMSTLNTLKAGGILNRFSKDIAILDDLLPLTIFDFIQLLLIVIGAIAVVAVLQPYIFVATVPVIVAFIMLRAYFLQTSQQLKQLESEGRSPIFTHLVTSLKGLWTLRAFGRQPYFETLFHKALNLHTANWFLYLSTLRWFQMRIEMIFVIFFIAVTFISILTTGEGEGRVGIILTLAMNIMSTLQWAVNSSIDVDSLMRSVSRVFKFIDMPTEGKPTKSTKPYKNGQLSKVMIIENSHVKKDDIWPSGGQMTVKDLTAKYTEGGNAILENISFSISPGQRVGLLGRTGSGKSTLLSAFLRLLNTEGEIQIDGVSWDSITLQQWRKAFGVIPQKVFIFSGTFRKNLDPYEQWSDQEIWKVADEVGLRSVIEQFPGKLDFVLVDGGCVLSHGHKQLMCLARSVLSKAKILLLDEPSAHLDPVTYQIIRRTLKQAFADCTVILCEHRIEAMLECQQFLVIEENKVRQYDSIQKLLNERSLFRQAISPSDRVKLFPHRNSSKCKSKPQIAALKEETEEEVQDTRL
Outline: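 ΔF508/ΔF508 primary human bronchial epithelia, differentiated ≥4 weeks at air-liquid interface, treated basolaterally with compound for 24 h at 37 °C. Transepithelial voltage and conductance by 24-channel current clamp at 36 °C: benzamil, then forskolin plus VX-770 for 27 min, then bumetanide; AUC of equivalent chloride current over vehicle.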

Row | Structure (SMILES) | Activity
1 | Cc1c(-c2cc(C(=O)O)c3c(OCc4ccccc4)ccc(C4CC4)c3n2)oc2ccccc12 [Compound 107, 5-(Benzyloxy)-8-cyclopropyl-2-(3-methyl-1-benzofuran-2-yl)quinoline-4-carboxylic acid] | ++ (activity>50% of CFTR amplifier+VX-809 (3 uM) with compound at 10 uM and Compound A at 3 uM)
2 | Cc1oc2ccccc2c1-c1cc(C(=O)O)c2c(OCc3ccccc3)ccc(C)c2n1 [Compound 35, 5-(Benzyloxy)-8-methyl-2-(2-methyl-1-benzofuran-3-yl)quinoline-4-carboxylic acid] | ++ (activity>50% of CFTR amplifier+VX-809 (3 uM) with compound at 10 uM and Compound A at 3 uM)
3 | COc1cc(C)c2nc(-c3cc4ccccc4o3)cc(C(=O)O)c2c1 [Compound 11, 2-(1-Benzofuran-2-yl)-6-methoxy-8-methylquinoline-4-carboxylic acid] | + (activity<50% of an CFTR amplifier (Compound A)+VX-809 (3 uM) with compound at 10 uM and Compound A at 3 uM)
4 | Cc1c(-c2cc(C(=O)[O-])c3c(O[C@@H](C)c4ccc(OC(F)F)cc4)ccc(C)c3n2)oc2ccccc12.[Na+] [Compound 236] | ++ (activity>50% of CFTR amplifier+VX-809 (3 uM) with compound at 10 uM and Compound A at 3 uM)
5 | Cc1c(-c2cc(C(=O)[O-])c3c(O[C@H](CCO)c4ccccc4)ccc(C)c3n2)sc2ccccc12.[Na+] [Compound 311] | ++ (activity>50% of CFTR amplifier+VX-809 (3 uM) with compound at 10 uM and Compound A at 3 uM)
6 | COc1ccc(C)c2nc(-c3cc4ccccc4o3)cc(C(=O)O)c12 [Compound 14, 2-(1-Benzofuran-2-yl)-5-methoxy-8-methylquinoline-4-carboxylic acid] | + (activity<50% of an CFTR amplifier (Compound A)+VX-809 (3 uM) with compound at 10 uM and Compound A at 3 uM)
7 | Cc1c(-c2cc(C(=O)[O-])c3c(OC[C@H]4CC[C@](C)(O)CC4)ccc(C)c3n2)sc2ccccc12.[Na+] [Compound 323] | ++ (activity>50% of CFTR amplifier+VX-809 (3 uM) with compound at 10 uM and Compound A at 3 uM)
8 | Cc1ccc(O[C@@H](C)c2ccccc2)c2c(C(=O)[O-])cc(-c3nc4ccccn4c3C)nc12.[Na+] [Compound 201] | ++ (activity>50% of CFTR amplifier+VX-809 (3 uM) with compound at 10 uM and Compound A at 3 uM)
9 | Cc1c(-c2cc(C(=O)[O-])c3c(OCC4COC4)ccc(C)c3n2)oc2ccccc12.[Na+] [Compound 343] | ++ (activity>50% of CFTR amplifier+VX-809 (3 uM) with compound at 10 uM and Compound A at 3 uM)
10 | COC[C@@H](Oc1ccc(C)c2nc(-c3sc4ccccc4c3C)cc(C(=O)[O-])c12)c1ccccc1.[Na+] [Compound 309] | ++ (activity>50% of CFTR amplifier+VX-809 (3 uM) with compound at 10 uM and Compound A at 3 uM)
11 | Cc1c(-c2cc(C(=O)O)c3c(OC(=O)Nc4ccccc4)ccc(C)c3n2)oc2ccccc12 [Compound 81, 8-Methyl-2-(3-methyl-1-benzofuran-2-yl)-5-[(phenylcarbamoyl)oxy]quinoline-4-carboxylic Acid] | + (activity<50% of an CFTR amplifier (Compound A)+VX-809 (3 uM) with compound at 10 uM and Compound A at 3 uM)
12 | Cc1c(-c2cc(C(=O)[O-])c3c(O[C@H]4CCC[C@H](C)C4)ccc(C)c3n2)sc2ccccc12.[Na+] [Compound 220, Sodium 8-Methyl-2-(3-methyl-1-benzothiophen-2-yl)-5-[[(1S,3S)-3-methylcyclohexyl]oxy]quinoline-4-carboxylate] | ++ (activity>50% of CFTR amplifier+VX-809 (3 uM) with compound at 10 uM and Compound A at 3 uM)
13 | CCc1ccc(O[C@@H]2CCC[C@H](C)C2)c2c(C(=O)O)cc(-c3csc4ccccc34)nc12 [Compound 182, 2-(Benzo[b]thiophen-3-yl)-8-ethyl-5-(((1R,3S)-3-methylcyclohexyl)oxy)quinoline-4-carboxylic Acid] | ++ (activity>50% of CFTR amplifier+VX-809 (3 uM) with compound at 10 uM and Compound A at 3 uM)
14 | Cc1c(-c2cc(C(=O)[O-])c3c(OC4CC(C)(C)OC(C)(C)C4)ccc(C)c3n2)sc2ccccc12.[Na+] [Compound 333] | ++ (activity>50% of CFTR amplifier+VX-809 (3 uM) with compound at 10 uM and Compound A at 3 uM)
15 | Cc1cc2c(C(=O)O)cc(-c3oc4ccccc4c3C)nc2cc1OCc1ccccc1 [Compound 41, 7-(Benzyloxy)-6-methyl-2-(3-methyl-1-benzofuran-2-yl)quinoline-4-carboxylic acid] | + (activity<50% of an CFTR amplifier (Compound A)+VX-809 (3 uM) with compound at 10 uM and Compound A at 3 uM)
16 | Cc1c(-c2cc(C(=O)O)c3c(OC4CCc5ccccc54)ccc(C)c3n2)oc2ccccc12 (centres unmarked) [Compound 336] | ++ (activity>50% of CFTR amplifier+VX-809 (3 uM) with compound at 10 uM and Compound A at 3 uM)

Row | Structure (SMILES) | Activity
17 | Cc1cccc(COc2ccc(C)c3nc(-c4sc5ccccc5c4C)cc(C(=O)[O-])c23)c1.[Na+] [Compound 304] | ++ (activity>50% of CFTR amplifier+VX-809 (3 uM) with compound at 10 uM and Compound A at 3 uM)
18 | Cc1c(-c2cc(C(=O)[O-])c3c(O[C@H]4C[C@H](c5ccccc5)C4)ccc(C)c3n2)sc2ccccc12.[Na+] [Compound 283, Sodium 8-Methyl-2-(3-methyl-1-benzothiophen-2-yl)-5-[(1r,3r)-3-phenylcyclobutoxy]quinoline-4-carboxylate] | ++ (activity>50% of CFTR amplifier+VX-809 (3 uM) with compound at 10 uM and Compound A at 3 uM)
19 | CCc1ccc(C)c2nc(-c3oc4ccccc4c3C)cc(C(=O)O)c12 [Compound 113, 5-Ethyl-8-methyl-2-(3-methyl-1-benzofuran-2-yl)quinoline-4-carboxylic acid] | + (activity<50% of an CFTR amplifier (Compound A)+VX-809 (3 uM) with compound at 10 uM and Compound A at 3 uM)
20 | Cc1c(-c2cc(C(=O)O)c3cc(C(C)C)cc(C)c3n2)oc2ccccc12 [Compound 36] | ++ (activity>50% of CFTR amplifier+VX-809 (3 uM) with compound at 10 uM and Compound A at 3 uM)
21 | Cc1c(-c2cc(C(=O)[O-])c3c(OC4CCOCC4)ccc(C)c3n2)oc2ccccc12.[Na+] [Compound 332] | ++ (activity>50% of CFTR amplifier+VX-809 (3 uM) with compound at 10 uM and Compound A at 3 uM)
22 | Cc1c(-c2cc(C(=O)[O-])c3c(O[C@H]4C[C@@H](c5ccccc5)C4)ccc(C)c3n2)oc2ccccc12.[Na+] [Compound 282, Sodium 8-Methyl-2-(3-methyl-1-benzofuran-2-yl)-5-[(1s,3s)-3-phenylcyclobutoxy]quinoline-4-carboxylate] | ++ (activity>50% of CFTR amplifier+VX-809 (3 uM) with compound at 10 uM and Compound A at 3 uM)
23 | Cc1ccc([C@H](C)Oc2ccc(C)c3nc(-c4sc5ccccc5c4C)cc(C(=O)[O-])c23)cc1.[Na+] [Compound 227, Sodium 8-Methyl-2-(3-methyl-1-benzothiophen-2-yl)-5-[(1S)-1-(4-methylphenyl)ethoxy]quinoline-4-carboxylate] | ++ (activity>50% of CFTR amplifier+VX-809 (3 uM) with compound at 10 uM and Compound A at 3 uM)
24 | Cc1c(-c2cc(C(=O)[O-])c3c(O[C@@H]4C[C@H]5CC[C@@H](C4)O5)ccc(C)c3n2)oc2ccccc12.[Na+] [Compound 354] | ++ (activity>50% of CFTR amplifier+VX-809 (3 uM) with compound at 10 uM and Compound A at 3 uM)
25 | Cc1ccc(OCc2ccccc2)c2c(C(=O)O)cc(-c3cc4ccccc4s3)nc12 [Compound 34, 2-(1-Benzothiophen-2-yl)-5-(benzyloxy)-8-methylquinoline-4-carboxylic acid] | ++ (activity>50% of CFTR amplifier+VX-809 (3 uM) with compound at 10 uM and Compound A at 3 uM)
26 | Cc1c(-c2cc(C(=O)O)c3cc(C4CC4)cc(C)c3n2)oc2ccccc12 [Compound 28, 6-Cyclopropyl-8-methyl-2-(3-methyl-1-benzofuran-2-yl)quinoline-4-carboxylic Acid] | ++ (activity>50% of CFTR amplifier+VX-809 (3 uM) with compound at 10 uM and Compound A at 3 uM)
27 | Cc1c(-c2cc(C(=O)O)c3c(OCc4ccccc4)ccc(C)c3n2)sc2ccccc12 [Compound 33, 5-(Benzyloxy)-8-methyl-2-(3-methyl-1-benzothiophen-2-yl)quinoline-4-carboxylic acid] | ++ (activity>50% of CFTR amplifier+VX-809 (3 uM) with compound at 10 uM and Compound A at 3 uM)
28 | Cc1cc(C)c2nc(-c3c(C)oc4ccccc34)cc(C(=O)O)c2c1 [Compound 5, 6,8-Dimethyl-2-(2-methyl-1-benzofuran-3-yl)quinoline-4-carboxylic acid] | + (activity<50% of an CFTR amplifier (Compound A)+VX-809 (3 uM) with compound at 10 uM and Compound A at 3 uM)
29 | Cc1c(-c2cc(C(=O)O)c3c(O[C@H](C)c4ccccc4)ccc(C)c3n2)sc2ccccc12 [Compound 137, 8-Methyl-2-(3-methyl-1-benzothiophen-2-yl)-5-[(1R)-1-phenylethoxy]quinoline-4-carboxylic Acid] | ++ (activity>50% of CFTR amplifier+VX-809 (3 uM) with compound at 10 uM and Compound A at 3 uM)
30 | CCc1ccc(O[C@H](C)c2ccccc2)c2c(C(=O)O)cc(-c3csc4ccccc34)nc12 [Compound 165] | ++ (activity>50% of CFTR amplifier+VX-809 (3 uM) with compound at 10 uM and Compound A at 3 uM)
31 | CCc1ccc(O[C@@H]2CCC[C@H](C)C2)c2c(C(=O)[O-])cc(-c3sc4ccccc4c3C)nc12.[Na+] [Compound 214, Sodium 8-Ethyl-2-(3-methyl-1-benzothiophen-2-yl)-5-[[(1R,3S)-3-methylcyclohexyl]oxy]quinoline-4-carboxylate] | ++ (activity>50% of CFTR amplifier+VX-809 (3 uM) with compound at 10 uM and Compound A at 3 uM)
32 | CCc1ccc(OCc2ccccc2)c2c(C(=O)O)cc(-c3oc4ccccc4c3C)nc12 [Compound 108, 5-(benzyloxy)-8-ethyl-2-(3-methyl-1-benzofuran-2-yl)quinoline-4-carboxylic acid] | ++ (activity>50% of CFTR amplifier+VX-809 (3 uM) with compound at 10 uM and Compound A at 3 uM)
